The source of these data is patent US11780895B2, “Targeted DNA demethylation and methylation” (The Jackson Laboratory, priority 2016, dated 2023).

The subject of the assay is hMLH1. The experiment in a line: hMLH1 mRNA levels by TaqMan qRT-PCR in transfected HEK293T cells. Type of assay: cell-based, human. Particulars: for activation of hMLH1 by dCas9 direct fusions (relative change in mRNA levels): same combination of sgRNAs as Casilio-ME; for hMLH1 expression, fold over background (change in mRNA levels): sgRNAs 3+7, 60 hours post-transfection, GAPDH normalised. The method, then:
To test the system, HEK293T cells were transfected with Casilio-ME components including Ct or Nt-fusion TET1-effector and a combination of 3 or 2 sgRNAs. Relative levels of hMLH1 mRNA were determined in TaqMan assays by using RNA extracted from cells 60 hours post-transfection and GAPDH as endogenous control for normalization of qRT-PCR measurements.
Cell culture and transfection. HEK293T cells were cultivated in Dulbecco's modified Eagle's medium (DMEM)(Sigma) with 10% fetal bovine serum (FBS)(Lonza), 4% Glutamax (Gibco), 1% Sodium Pyruvate (Gibco) and penicillin-streptomycin (Gibco) in an incubator set to 37° C. and 5% CO2. When indicated cells were treated with 2.5 μM or 5 μM 5-Azacytidine (sigma) as indicated with a daily change of medium containing freshly diluted drug. Cells were seeded into 12-well plates at 150,000 cells per well the day before being transfected with 100 ng of dCas9 construct, 100 ng of modified sgRNA construct and 200 ng of PUF-fusion with Attractene transfection reagent according to manufacturer's instructions (Qiagen). In dCas9-direct fusion experiments, cells were transfected with 200 ng dCas9-fusion constructs and 200 ng of modified sgRNA constructs. Transfected cells were harvested 60 hours after transfection, or otherwise indicated, and cell pellets were used for extractions of RNA, genomic DNA and protein.
Quantitative RT-PCR analysis. Cells were harvested, washed with Dulbecco's phosphate-buffered saline (dPBS), centrifuged at 125×g for 5 min and then the flash-frozen pellets were stored at −80° C. RNA was extracted using RNeasy Plus Mini Kit according to the manufacturer's instructions (Qiagen). cDNA libraries were made using Applied Biosystems High Capacity RNA-to-cDNA kit with 200 ng to 1 μg of RNA. TaqMan gene expression assays (Applied Biosystems) were designed using GAPDH (Hs03929097, VIC) as endogenous control and hMLH1 (Hs00179866, FAM) as target. TaqMan Universal Master Mix II, with UNG (Applied Biosystems) was used for Quantitative PCR (qPCR), with 2 μl of diluted cDNA used for each reaction. Activation was analyzed with the Applied Biosystems ViiA7 instrument. Gene expression levels were calculated by “delta delta Ct” algorithm and normalized to control samples.
On the technique in general: In qPCR the cycle at which signal appears reflects the starting amount.

For the molecule “dCas9-TET1(CD): direct fusion of TET1(CD) to the C-terminus of dCas9”, for the setting “HEK293T”, the “activation of hMLH1 by dCas9 direct fusions (relative change in mRNA levels)” value was “relatively weak activation” and the “hMLH1 expression, fold over background (change in mRNA levels)” value was found to be 19 fold. In addition, where the note is “HEK293T, same sgRNA combination”, the “hMLH1 activation relative to dCas9-p65HSF1” value is given as “at best twice the activity obtained with transcription activator dCas9 fusion”. Besides, the “hMLH1 activation as percentage of the activation obtained using Casilio-ME” value (same sgRNAs combination, parallel experiment) is on record as “about 14%”.

Consider “TET1(CD)-dCas9: direct fusion of TET1(CD) to the N-terminus of dCas9”, for which, where the note is “HEK293T”, the “activation of hMLH1 by dCas9 direct fusions (relative change in mRNA levels)” value was “much weaker activation than its respective C-terminal fusion”.

B1: PUFa-TET1(CD): hTET1 catalytic domain (residues 1418 to 2136) fused to the C-terminus of PUFa (protein)
chain: MIDGGGGSDPKKKRKVDPKKKRKVDPKKKRKVGSTGSRNDGGGGSGGGGSGGGGSGRAGILPPKKKRKVSRGRSRLLEDFRNNRYPNLQLREIAGHIMEFSQDQHGSRFIQLKLERATPAERQLVFNEILQAAYQLMVDVFGNYVIQKFFEFGSLEQKLALAERIRGHVLSLALQMYGSRVIEKALEFIPSDQQNEMVRELDGHVLKCVKDQNGNHVVQKCIECVQPQSLQFIIDAFKGQVFALSTHPYGCRVIQRILEHCLPDQTLPILEELHQHTEQLVQDQYGNYVIQHVLEHGRPEDKSKIVAEIRGNVLVLSQHKFASNVVEKCVTHASRTERAVLIDEVCTMNDGPHSALYTMMKDQYANYVVQKMIDVAEPGQRKIVMHKIRPHIATLRKYTYGKHILAKLEKYYMKNGVDLGDPKKKRKVDPKKKRKVGGRGGGGSGGGGSGGGGSGPAELPTCSCLDRVIQKDKGPYYTHLGAGPSVAAVREIMENRYGQKGNAIRIEIVVYTGKEGKSSHGCPIAKWVLRRSSDEEKVLCLVRQRTGHHCPTAVMVVLIMVWDGIPLPMADRLYTELTENLKSYNGHPTDRRCTLNENRTCTCQGIDPETCGASFSFGCSWSMYFNGCKFGRSPSPRRFRIDPSSPLHEKNLEDNLQSLATRLAPIYKQYAPVAYQNQVEYENVARECRLGSKEGRPFSGVTACLDFCAHPHRDIHNMNNGSTVVCTLTREDNRSLGVIPQDEQLHVLPLYKLSDTDEFGSKEGMEAKIKSGAIEVLAPRRKKRTCFTQPVPRSGKKRAAMMTEVLAHKIRAVEKKPIPRIKRKNNSTTTNNSKPSSLPTLGSNTETVQPEVKSETEPHFILKSSDNTKTYSLMPSAPHPVKEASPGFSWSPKTASATPAPLKNDATASCGFSERSSTPHCTMPSGRLSGANAAAADGPGISQLGEVAPLPTLSAPVMEPLINSEPSTGVTEPLTPHQPNHQPSFLTSPQDLASSPMEEDEQHSEADEPPSDEPLSDDPLSPAEEKLPHIDEYWSDSEHIFLDANIGGVAIAPAHGSVLIECARRELHATTPVEHPNRNHPTRLSLVFYQHKNLNKPQHGFELNKIKFEAKEAKNKKMKASEQKDQAANEGPEQSSEVNELNQIPSHKALTLTHDNVVTVSPYALTHVAGPYNHWVID
Consider B1, for which the “time course of activation of hMLH1 transcription” value (HEK293T, RNA guides 3 and 7, 3, 4, 5 and 6 days post transfection) was “maintained during the course of these transient transfections”. For the same molecule, the “hMLH1 expression, fold over background (change in mRNA levels)” value (HEK293T) worked out at 135 fold.
